Data on two molecules can be found in PMC10331583, “Control of fibrosis with enhanced safety via asymmetric inhibition of prolyl‐tRNA synthetase 1” (EMBO Molecular Medicine, 2023).

“Also recorded” adds a separate entry of the source. Read-outs that look alike come from different tables or passages of the source.

One series concerns the target T1, PARS1 (Homo sapiens, UniProt P07814).
T1 construct: His‐PARS1 (1001–1,512 aa); His; made in house; host or cells: Escherichia coli
T1 sequence (P07814 1001-1512 limits assumed): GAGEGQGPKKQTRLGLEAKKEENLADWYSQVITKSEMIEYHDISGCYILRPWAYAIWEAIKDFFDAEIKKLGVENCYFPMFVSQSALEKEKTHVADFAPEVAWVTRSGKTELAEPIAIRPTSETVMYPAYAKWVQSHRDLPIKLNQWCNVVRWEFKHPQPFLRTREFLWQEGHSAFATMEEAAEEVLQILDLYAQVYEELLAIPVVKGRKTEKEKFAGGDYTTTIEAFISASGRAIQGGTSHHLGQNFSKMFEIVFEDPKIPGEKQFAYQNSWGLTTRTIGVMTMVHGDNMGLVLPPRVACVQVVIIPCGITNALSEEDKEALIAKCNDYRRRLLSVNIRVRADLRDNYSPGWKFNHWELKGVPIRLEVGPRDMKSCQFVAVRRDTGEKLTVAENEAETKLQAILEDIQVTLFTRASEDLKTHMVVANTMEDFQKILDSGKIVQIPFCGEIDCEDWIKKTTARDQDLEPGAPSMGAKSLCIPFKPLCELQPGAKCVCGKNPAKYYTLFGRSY
The series is described as follows: In vitro prolylation assay. The format is biochemical. Conditions: for mode of PARS1 inhibition: IC50 at different proline and ATP concentrations. As to the method:
The enzyme reaction was initiated by the addition of 100 nM purified His‐PARS1 (1001–1,512 aa). After 5 min, the reaction mixture was quenched on Whatman filter paper presoaked with 5% trichloroacetic acid (TCA). The filter papers were washed three times in 5% TCA for 10 min at 4°C and once in 100% ethanol for 10 min. The filter papers were dried, and radioactivity was quantified using liquid scintillation counter (LSC).
After 1 h, the reaction mixture was quenched on Whatman filter paper presoaked with 5% TCA. The filter papers were washed three times in 5% TCA for 10 min at 4°C and once in 100% ethanol for 10 min. The filter papers were dried, and radioactivity was quantified using LSC.

In a further series the test system is C57BL/6 mice. Nature of the series: Bleomycin‐induced lung fibrosis, therapeutic model 2 (compounds from 2 weeks after bleomycin). The series is classed as in vivo. The settings on record: model 2, drug administration from day 14. As to the method: To examine therapeutic efficacy of DWN12088, all experiments were conducted following the international guidelines on the ethical use of experimental animals and approved by the Institutional Animal Care and Use Committee of Daewoong Pharmaceutical (IACUC‐21‐014). C57BL/6 mice (7–8‐week‐old, male, obtained from Orient Bio) were anesthetized with Zoletil and injected intratracheally with 100 μl bleomycin (2 units/kg) (Merck, B8416) to induce lung fibrosis. A group of disease‐free mice (“untreated”) were injected with PBS instead of bleomycin. After a week, mice treated with bleomycin were randomized to (i) vehicle (saline), (ii) HF 0.05 mg/kg, (iii) HF 0.1 mg/kg, and (iv) DWN12088 10 mg/kg groups (n = 5 for each group) according to their body weight. The drugs were orally administered once daily for 2 weeks, and then the outcome was analyzed. For the experiments testing the effect of the compounds 2 weeks after bleomycin challenge, the experiment was approved by IACUC of Daewoong Pharmaceutical (IACUC‐22‐009). […]
The collagen contents of lung tissues were measured using Sircol™ soluble collagen assay (Biocolor Ltd., S1000) following the manufacturer's instructions. […] Tissue extracts were incubated with Sirius red dye, and the absorbance was determined at 540 nm using a spectrophotometer. […]

A further series concerns ICR (CrljOri: CD1) mice. The series is described as follows: Two‐week repeated‐dose toxicity study, HF versus DWN12088. The series is classed as in vivo. Here is the method: (§1) To compare the in vivo toxicity of HF and DWN12088, all experiments were conducted following the international guidelines on the ethical use of experimental animals and approved by the Institutional Animal Care and Use Committee of KNOTUS (KNOTUS IACUC 21‐KE‐250 and KNOTUS IACUC 21‐KE‐359). ICR (CrljOri: CD1) mice (7‐week‐old, male, obtained from Koatech) were randomized (n = 6 for each group) and then orally administered with the indicated amounts of HF or DWN12088 once daily for 2 weeks. In the high‐dose group, the dose of DWN12088 was reduced from 120 mg/kg to 90 mg/kg from day 6. […] Body weight was measured at day 1, 2, 3, 4, 5, 8, 14, and 15.
(§2) After administering the drugs for 2 weeks, mice were fasted overnight and anesthetized with isoflurane. Blood samples were collected in EDTA‐coated tubes, and the following parameters were determined using a hematology analyzer (ADVIA 2120, SIEMENS, USA); red blood cell, platelet count, hematocrit, white blood cell, red cell distribution width, hemoglobin concentration distribution width, hemoglobin concentration, neutrophil, mean corpuscular volume, lymphocyte, mean cell hemoglobin, monocyte, mean cell hemoglobin concentration, eosinophil, mean platelet volume, basophil, reticulocytes, and large unstained cells.
(§3) For clinical chemistry, the remaining blood samples were incubated in a vacutainer tube with clot activator and then centrifuged to prepare serum. The following parameters were measured in the serum using a chemistry analyzer (7180, Hitachi, Japan) and electrolyte analyzer (AVL 9180, Roche, Switzerland); aspartate aminotransferase, albumin, alanine aminotransferase, albumin/globulin ratio, alkaline phosphatase, blood urea nitrogen, creatine phosphokinase, creatinine, total bilirubin, inorganic phosphorus, glucose, calcium, total cholesterol, sodium, triglyceride, potassium, total protein, and chloride.
(§4) After blood collection, blood was drained by incising the abdominal aorta and posterior vena cava, and all organs of the skin, brain, thoracic cavity, and abdominal cavity were observed. The relative weights of the lung, spleen, liver, heart, kidney, thymus, and testes were calculated by dividing the weight of each organ by the body weight. The experiments were conducted as non‐blind test.

Assay in series [1]: as above
The series is classed as in vivo, mice. The settings on record: male, ICR (CrljOri: CD1), mouse, in vivo; oral once daily for 2 weeks, ICR mice. As to the method: as §1, §2, §3, §4

For a further series, the target named is T2, His‐PARS1 (Homo sapiens, UniProt P07814).
T2 construct: His‐PARS1 (1001–1,512 aa); made in house; host or cells: Escherichia coli
T2 sequence (P07814 1001-1512 limits assumed): T1 sequence (P07814 1001-1512 limits assumed)
The series is described as follows: Surface plasmon resonance (SPR). The format is binding. For orientation: Surface plasmon resonance follows binding to a sensor surface in real time, without labels.

The mark [2] stands for this setting: 120 ➔ 90 mg/kg (from day 6) oral once daily.

For `O[C@H]1CCCN[C@@H]1CCCn1cnc2c(Cl)c(Cl)ccc21` [DWN12088], the IC50 against PARS1 (IC50, 1 μM Pro, 5 mM ATP) is 76.1 nM; against PARS1 (IC50, 10 μM Pro, 5 mM ATP) it was 397 nM; at PARS1 (IC50, 100 μM Pro, 2.5 mM ATP), 5940 nM; at PARS1 (IC50, 100 μM Pro, 5 mM ATP), 6460 nM; at PARS1 (IC50, 100 μM Pro, 10 mM ATP) it was 3000 nM. For the same molecule, the “mode of PARS1 inhibition” value on PARS1 is “proline‐competitive and ATP‐uncompetitive; also recorded: competitive inhibitor for proline, and a mixed or uncompetitive inhibitor for ATP”. Also, the fibrotic properties result with C57BL/6 mice was “less apparent”. Moreover, the “Hematology ↓” value with ICR (CrljOri: CD1) mice (60 mg/kg oral once daily, 2 weeks) is given as “HGB, MCHC”; with ICR (CrljOri: CD1) mice (setting [2]), “RBC, HGB, MCHC”. Moreover, the “Clinical chemistry ↑” value with ICR (CrljOri: CD1) mice (setting [2]) is reported as “AST, ALT, ALP, GLU, BUN, CRE, IP, K^+”. The “Clinical chemistry ↓” value with ICR (CrljOri: CD1) mice (setting [2]) was “TP, TCHO”. For the same molecule, the Clinical signs result with ICR (CrljOri: CD1) mice (setting [2]) is listed as “Inanimation, hypothermia”. In addition, the Necropsy finding result in the series with ICR (CrljOri: CD1) mice (setting [2]) is “• Pale liver (1/6) • Thymus atrophy (3/6) • Pale and large kidney (1/6) • Dark red contents in the stomach (1/6)”. Besides, the “Organ weight ↑” value with ICR (CrljOri: CD1) mice (setting [2]) is listed as “Kidney, liver”. Further, the “Organ weight ↓” value in the series on ICR (CrljOri: CD1) mice (setting [2]) is reported as “Spleen, thymus”. Also, the “Mortality: Terminal sacrifice” value in the series with ICR (CrljOri: CD1) mice (120 ➔ 90 mg/kg (from day 6) oral once daily, days 2, 5, 6 and 12) is “Terminal sacrifice: 4/6 (Each animal on days 2, 5, 6, and 12)”. For the same molecule, the “reduction in body weight” value with ICR (CrljOri: CD1) mice (all the tested doses) is on record as “did not show weight loss”. Further, in the series with ICR (CrljOri: CD1) mice (male, ICR (CrljOri: CD1), mouse, in vivo, 2 weeks), the “NOAEL of DWN12088 relative to that of HF” value is “more than 160 times”. In series [1], this molecule showed an NOAEL at 2 weeks of 60 mg/kg. Moreover, the Kd on His‐PARS1 (KD, + ATP (1 mM)) was 31100 nM; on His‐PARS1 (KD, - ATP), above 300000 nM; at His‐PARS1 (Kd, SPR, in the presence of ATP), 31000 nM.
As to `O=C(CC1NCCCC1O)Cn1cnc2cc(Br)c(Cl)cc2c1=O` (centres unmarked) [HF, Halofuginone, reference compound], the IC50 at PARS1 (IC50, 1 μM Pro, 5 mM ATP) was determined as 24.5 nM; against PARS1 (IC50, 10 μM Pro, 5 mM ATP), 46.2 nM; on PARS1 (IC50, 100 μM Pro, 2.5 mM ATP) it was 137 nM; against PARS1 (IC50, 100 μM Pro, 5 mM ATP), 103 nM; on PARS1 (IC50, 100 μM Pro, 10 mM ATP), 101 nM. For the same molecule, the “mode of PARS1 inhibition” value on PARS1 was “proline‐competitive and ATP‐uncompetitive”. In addition, the fibrotic properties result in the series on C57BL/6 mice is on record as “less apparent”. For the same molecule, the “Mortality: Found dead” value in the series on ICR (CrljOri: CD1) mice (1.5 mg/kg oral once daily, 1 animal on day 5, 2 on day 6) was “Found dead: 3/6 (1 animal on day 5, 2 animals on day 6) Terminal sacrifice: 3/6 (on day 6)”. The “Mortality: Terminal sacrifice” value in the series on ICR (CrljOri: CD1) mice (1.5 mg/kg oral once daily, on day 6) is recorded as “Found dead: 3/6 (1 animal on day 5, 2 animals on day 6) Terminal sacrifice: 3/6 (on day 6)”. Further, the “reduction in body weight” value with ICR (CrljOri: CD1) mice (mouse, in vivo) was above 10%. The same molecule yielded an NOAEL at 2 weeks in series [1] below 0.375 mg/kg. For the same molecule, the Kd at His‐PARS1 (+ ATP (1 mM), read-out: KD) turned out to be 178 nM; at His‐PARS1 (- ATP, read-out: KD) it was 47900 nM.

As usually defined, the IC50 is the concentration needed to halve the response being measured. A higher IC50 goes with lower potency. What is called NOAEL is the highest dose or exposure tested at which no adverse effect was seen. A word on the Kd: it is the free concentration of one partner at which half of the binding sites on the other are occupied at equilibrium, for simple one-to-one binding.
